Literature values, collected in US5189064A, “Treatment of cocaine addiction” (Matrix Technologies, Inc., priority 1990, dated 1993).
Where two headings read alike, the source gives them in different places. Each block holds one compound with its values, some of them ahead of it. Square brackets hold non-standard residues; d marks the D form. Ends that are not written are not given here.

Legend:
[1] = tested on: enkephalinase A; conditions: in vitro, calf brain enzyme
[2] = tested on: enkephalinase B; conditions: in vitro, calf brain enzyme
[3] = tested on: healthy men; conditions: tryptophan 50 mg/kg, tyrosine 100 mg/kg, eight healthy men
[4] = tryptophan injected into the bloodstream
[5] = infusion, neurological patients with depression and insomnia
[6] = tested on: enkephalinase
[7] = tested on: endorphinase
[8] = tested on: [Met]-enkephalin
[9] = tested on: enkephalinases; conditions: rat intestinal mucosa
[10] = target: T1, carboxypeptidase A (Bos taurus, UniProt P00730)
T1 sequence (P00730 111-417 limits assumed): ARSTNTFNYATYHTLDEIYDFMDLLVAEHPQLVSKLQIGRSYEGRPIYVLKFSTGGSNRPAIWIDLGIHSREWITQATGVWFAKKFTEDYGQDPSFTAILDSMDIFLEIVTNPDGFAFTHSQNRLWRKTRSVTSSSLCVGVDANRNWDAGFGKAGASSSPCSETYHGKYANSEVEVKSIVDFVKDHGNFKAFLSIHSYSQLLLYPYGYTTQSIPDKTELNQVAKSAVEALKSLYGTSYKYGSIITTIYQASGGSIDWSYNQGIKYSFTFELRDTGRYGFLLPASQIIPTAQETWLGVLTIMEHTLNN

[11] = tested on: [Met]-enkephalin; conditions: mice

Compound: [dF]-Tyr
inhibitory activity against enkephalinase A [1]: markedly enhances the inhibitory potency
inhibitory activity against enkephalinase B [2]: markedly enhances the inhibitory potency

Compound: N[C@@H](Cc1ccc(O)cc1)C(=O)O [tyrosine, L-tyrosine]
pain discriminability [3]: not

elevations in cortical tryptophan levels [5]: six
Compound: N[C@@H](Cc1c[nH]c2ccccc12)C(=O)O [tryptophan, L-tryptophan]
level of serotonin in the brain elevated [4]: two
level of tryptophan in the brain elevated [4]: nine
pain discriminability [3]: significantly reduced pain discriminibility

enkephalinase inhibited ([6]; cortex): 60%
enkephalinase inhibited ([6]; hypothalamus): 80%
enkephalinase inhibited ([6]; spinal cord): 84%
enkephalinase inhibited ([6]; striatum): 78%
endorphinase inhibited ([7]; cortex): 18%
endorphinase inhibited ([7]; hypothalamus): 5%
endorphinase inhibited ([7]; spinal cord): 40%
endorphinase inhibited ([7]; striatum): 10%
inhibitory activity against enkephalinase A [1]: much less effective
inhibitory activity against enkephalinase B [2]: much less effective
inhibition of carboxypeptidase A [10]: inhibit carboxypeptidase A
Compound: N[C@H](Cc1ccccc1)C(=O)O [D-phenylalanine]
CNS [Met]-enkephalin level ([8]; six days later): remained high
CNS increases of [Met]-enkephalin ([8]; within 90 minutes following DPA injection): tripled
degradation of (D-Ala2-D-Leu5) enkephalin (DAPLE) and Tyr-D-Ala-Gly-Phe (TAAGP) [9]: significantly reduced degradation

Compound: O=C(O)CCc1ccccc1 [hydrocinnamic acid]
[Met]-enkephalin in the brain [11]: increases of [Met]-enkephalin
